What all share (assay type): biochemical
For experiment [1], the target named is PI3Kα (Homo sapiens, UniProt P42336). Put plainly: PI3K-alpha fluorescence polarization assay. To be noted: read-out: PI3Kα Median IC50. For orientation: In fluorescence polarisation assays a small probe gives low polarisation when free and higher when bound to something large.
The target of experiment [2] is PI3Kγ (Homo sapiens, UniProt P48736). The experiment can be described thus: PI3K-gamma fluorescence polarization assay. To be noted: read-out: PI3Kγ Median IC50.
PI3Kγ, sequence (P48736 whole entry, species assumed): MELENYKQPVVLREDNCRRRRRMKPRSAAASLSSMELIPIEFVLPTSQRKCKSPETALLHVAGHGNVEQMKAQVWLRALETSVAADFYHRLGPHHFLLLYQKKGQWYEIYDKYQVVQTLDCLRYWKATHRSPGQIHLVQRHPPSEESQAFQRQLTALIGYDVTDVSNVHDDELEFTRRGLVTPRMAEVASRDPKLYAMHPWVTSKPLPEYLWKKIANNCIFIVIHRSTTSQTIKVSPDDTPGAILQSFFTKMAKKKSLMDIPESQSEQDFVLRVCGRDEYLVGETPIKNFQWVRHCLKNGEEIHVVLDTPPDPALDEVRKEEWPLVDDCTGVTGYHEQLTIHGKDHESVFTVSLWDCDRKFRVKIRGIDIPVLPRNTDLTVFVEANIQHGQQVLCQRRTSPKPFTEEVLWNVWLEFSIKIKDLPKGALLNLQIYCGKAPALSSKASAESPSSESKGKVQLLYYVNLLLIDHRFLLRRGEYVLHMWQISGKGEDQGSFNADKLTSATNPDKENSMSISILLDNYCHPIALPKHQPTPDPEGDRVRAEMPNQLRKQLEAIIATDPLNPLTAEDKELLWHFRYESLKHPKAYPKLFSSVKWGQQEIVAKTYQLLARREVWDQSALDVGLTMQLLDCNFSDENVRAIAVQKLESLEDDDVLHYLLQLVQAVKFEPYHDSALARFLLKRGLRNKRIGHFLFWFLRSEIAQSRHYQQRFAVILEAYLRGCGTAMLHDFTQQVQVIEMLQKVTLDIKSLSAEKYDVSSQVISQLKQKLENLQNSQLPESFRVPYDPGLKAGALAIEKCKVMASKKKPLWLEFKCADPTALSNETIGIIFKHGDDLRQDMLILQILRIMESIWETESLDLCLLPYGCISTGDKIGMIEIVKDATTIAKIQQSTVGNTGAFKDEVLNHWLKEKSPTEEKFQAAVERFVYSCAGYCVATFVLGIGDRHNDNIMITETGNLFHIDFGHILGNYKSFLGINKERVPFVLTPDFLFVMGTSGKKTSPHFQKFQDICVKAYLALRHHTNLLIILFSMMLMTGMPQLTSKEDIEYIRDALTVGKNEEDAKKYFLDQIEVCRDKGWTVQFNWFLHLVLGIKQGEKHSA
In experiment [3] the target is mTOR (Homo sapiens, UniProt P42345). Put plainly: mTOR enzyme assay (DELFIA format, His6-S6K substrate). To be noted: read-out: mTOR Kinase Median IC50.

PI3Kα, sequence (P42336 whole entry, species assumed): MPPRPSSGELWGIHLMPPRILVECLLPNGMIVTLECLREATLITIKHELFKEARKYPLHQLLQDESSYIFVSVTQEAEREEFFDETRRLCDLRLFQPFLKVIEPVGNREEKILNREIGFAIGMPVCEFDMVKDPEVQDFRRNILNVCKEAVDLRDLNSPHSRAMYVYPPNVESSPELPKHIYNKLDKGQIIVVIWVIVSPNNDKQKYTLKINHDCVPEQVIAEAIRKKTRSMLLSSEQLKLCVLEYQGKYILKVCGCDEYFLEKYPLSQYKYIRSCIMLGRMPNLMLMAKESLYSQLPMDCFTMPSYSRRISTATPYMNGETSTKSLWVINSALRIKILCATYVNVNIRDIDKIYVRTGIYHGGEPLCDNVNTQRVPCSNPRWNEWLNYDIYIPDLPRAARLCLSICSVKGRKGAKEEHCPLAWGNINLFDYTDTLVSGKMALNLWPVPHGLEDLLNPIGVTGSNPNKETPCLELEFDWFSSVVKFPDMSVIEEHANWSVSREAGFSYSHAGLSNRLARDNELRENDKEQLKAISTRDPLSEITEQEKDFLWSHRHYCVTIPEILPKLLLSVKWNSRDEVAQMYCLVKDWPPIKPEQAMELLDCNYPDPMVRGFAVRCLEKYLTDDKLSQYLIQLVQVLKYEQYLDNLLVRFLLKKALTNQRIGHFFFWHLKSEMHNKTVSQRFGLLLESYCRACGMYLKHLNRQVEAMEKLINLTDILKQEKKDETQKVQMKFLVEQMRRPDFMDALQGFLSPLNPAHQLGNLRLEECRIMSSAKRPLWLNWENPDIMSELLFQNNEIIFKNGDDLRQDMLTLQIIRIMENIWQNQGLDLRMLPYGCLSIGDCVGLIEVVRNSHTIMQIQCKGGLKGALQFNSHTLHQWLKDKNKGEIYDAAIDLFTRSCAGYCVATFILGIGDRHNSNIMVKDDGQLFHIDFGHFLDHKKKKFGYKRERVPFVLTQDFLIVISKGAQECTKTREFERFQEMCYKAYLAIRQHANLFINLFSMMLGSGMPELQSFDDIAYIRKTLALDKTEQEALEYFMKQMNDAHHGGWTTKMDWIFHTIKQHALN
PI3Kα, sequence (P27986 whole entry partner, species assumed): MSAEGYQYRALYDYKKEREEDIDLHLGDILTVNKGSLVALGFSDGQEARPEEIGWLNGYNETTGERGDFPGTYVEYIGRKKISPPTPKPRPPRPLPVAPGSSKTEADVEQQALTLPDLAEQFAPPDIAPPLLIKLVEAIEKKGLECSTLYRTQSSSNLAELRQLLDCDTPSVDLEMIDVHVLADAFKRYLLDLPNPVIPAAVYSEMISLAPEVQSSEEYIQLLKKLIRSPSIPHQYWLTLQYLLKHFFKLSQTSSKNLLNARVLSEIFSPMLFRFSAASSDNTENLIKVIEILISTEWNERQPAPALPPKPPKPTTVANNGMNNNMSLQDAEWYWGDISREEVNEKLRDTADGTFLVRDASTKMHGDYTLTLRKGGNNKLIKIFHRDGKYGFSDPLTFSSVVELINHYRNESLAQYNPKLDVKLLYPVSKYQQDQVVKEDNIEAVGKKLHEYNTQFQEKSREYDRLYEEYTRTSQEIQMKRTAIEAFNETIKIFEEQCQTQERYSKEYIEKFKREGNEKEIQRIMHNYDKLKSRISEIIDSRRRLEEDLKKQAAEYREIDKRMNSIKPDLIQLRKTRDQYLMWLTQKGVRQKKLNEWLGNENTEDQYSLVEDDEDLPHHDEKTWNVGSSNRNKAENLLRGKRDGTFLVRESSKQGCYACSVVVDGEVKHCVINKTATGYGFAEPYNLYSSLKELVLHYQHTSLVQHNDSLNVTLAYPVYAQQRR

On to `CN(C)c1ccc(-c2ccnc3c2c(/C=C2\Oc4cc(O)cc(O)c4C2=O)cn3C)cc1` [Compound 25, (2Z)-2-({4-[4-(dimethylamino)phenyl]-1-methyl-1H-pyrrolo[2,3-b]pyridin-3-yl}methylene)-4,6-dihydroxy-1-benzofuran-3(2H)-one], for which the IC50 (as a rule, the concentration that gives 50% inhibition) was 85 nM in experiment [1], 84 nM in experiment [2] and 0.5 nM in experiment [3].
For `COc1ccc2[nH]cc(/C=C3\Oc4cc(O)cc(O)c4C3=O)c2n1` [Compound 26, (2Z)-4,6-dihydroxy-2-[(5-methoxy-1H-pyrrolo[3,2-b]pyridin-3-yl)methylene]-1-benzofuran-3(2H)-one], in that order: 233 nM, 1580 nM and more than 4000 nM.
`Cn1c(-c2ccccc2)c(/C=C2\Oc3cc(O)cc(O)c3C2=O)c2cccnc21` [Compound 27, (2Z)-4,6-dihydroxy-2-[(1-methyl-2-phenyl-1H-pyrrolo[2,3-b]pyridin-3-yl)methylene]-1-benzofuran-3(2H)-one]: the IC50 in experiment [1] is 820 nM; in experiment [2], 4000 nM; in experiment [3] it was 50 nM.
For `Cn1c(-c2ccccc2)c(/C=C2\Oc3cc(O)ccc3C2=O)c2cccnc21` [Compound 28, (2Z)-6-hydroxy-2-[(1-methyl-2-phenyl-1H-pyrrolo[2,3-b]pyridin-3-yl)methylene]-1-benzofuran-3(2H)-one], in that order: 5120 nM, 5180 nM and 2500 nM.
For `Cn1c(-c2ccccc2)c(/C=C2\Oc3cccc(O)c3C2=O)c2cccnc21` [Compound 29, (2Z)-4-hydroxy-2-[(1-methyl-2-phenyl-1H-pyrrolo[2,3-b]pyridin-3-yl)methylene]-1-benzofuran-3(2H)-one], in that order: 3670 nM, 8000 nM and 2700 nM.
The corresponding values for `Cn1cc(/C=C2\Oc3cc(O)cc(O)c3C2=O)c2c(-c3cccnc3)ccnc21` [Compound 33, (2Z)-4,6-dihydroxy-2-[(1-methyl-4-pyridin-3-yl-1H-pyrrolo[2,3-b]pyridin-3-yl)methylene]-1-benzofuran-3(2H)-one] are 8 nM, 38 nM and 0.6 nM.
For the compound `Cn1cc(/C=C2\Oc3cc(O)cc(O)c3C2=O)c2c(-c3ccc(C(N)=O)cc3)ccnc21` [Compound 34, 4-{3-[(Z)-(4,6-dihydroxy-3-oxo-1-benzofuran-2(3H)-ylidene)methyl]-1-methyl-1H-pyrrolo[2,3-b]pyridin-4-yl}benzamide], the IC50 was determined as 6 nM in experiment [1], 38 nM in experiment [2] and 0.2 nM in experiment [3].
For `CC(=O)Nc1ccc(-c2ccnc3c2c(/C=C2\Oc4cc(O)cc(O)c4C2=O)cn3C)cc1` [Compound 35, N-(4-{3-[(Z)-(4,6-dihydroxy-3-oxo-1-benzofuran-2(3H)-ylidene)methyl]-1-methyl-1H-pyrrolo[2,3-b]pyridin-4-yl}phenyl)acetamide], in that order: 11 nM, 51 nM and 0.4 nM.
The corresponding values for `Cn1cc(/C=C2\Oc3cc(O)cc(O)c3C2=O)c2c(-c3ccc(NS(C)(=O)=O)cc3)ccnc21` [Compound 36, N-(4-{3-[(Z)-(4,6-dihydroxy-3-oxo-1-benzofuran-2(3H)-ylidene)methyl]-1-methyl-1H-pyrrolo[2,3-b]pyridin-4-yl}phenyl)methanesulfonamide] are 7 nM, 36 nM and 0.3 nM.
The corresponding values for `Cn1cc(/C=C2\Oc3cc(O)cc(O)c3C2=O)c2c(-c3ccc(N)cc3)ccnc21` [Compound 41, (2Z)-2-{[4-(4-aminophenyl)-1-methyl-1H-pyrrolo[2,3-b]pyridin-3-yl]methylene}-4,6-dihydroxy-1-benzofuran-3(2H)-one] are 24 nM, 141 nM and 0.4 nM.
Take `CNc1ccc(-c2ccnc3c2c(/C=C2\Oc4cc(O)cc(O)c4C2=O)cn3C)cc1` [Compound 43, (2Z)-4,6-dihydroxy-2-({1-methyl-4-[4-(methylamino)phenyl]-1H-pyrrolo[2,3-b]pyridin-3-yl}methylene)-1-benzofuran-3(2H)-one]: the IC50 was determined as 19 nM in experiment [1], 66 nM in experiment [2] and 0.4 nM in experiment [3].
For `Cn1cc(/C=C2\Oc3cc(O)cc(O)c3C2=O)c2c(N3CCOCC3)ccnc21` [Compound 45, (2Z)-4,6-dihydroxy-2-[(1-methyl-4-morpholin-4-yl-1H-pyrrolo[2,3-b]pyridin-3-yl)methylene]-1-benzofuran-3(2H)-one], in that order: 12 nM, 131 nM and 0.3 nM.
The corresponding values for `CN1CCN(c2ccnc3c2c(/C=C2\Oc4cccc(O)c4C2=O)cn3C)CC1` [Compound 47, (2Z)-4-hydroxy-2-{[1-methyl-4-(4-methylpiperazin-1-yl)-1H-pyrrolo[2,3-b]pyridin-3-yl]methylene}-1-benzofuran-3(2H)-one] are 173 nM, 645 nM and 2.8 nM.
For `Cn1cc(/C=C2\Oc3cccc(O)c3C2=O)c2c(N3CCOCC3)ccnc21` [Compound 48, (2Z)-4-hydroxy-2-[(1-methyl-4-morpholin-4-yl-1H-pyrrolo[2,3-b]pyridin-3-yl)methylene]-1-benzofuran-3(2H)-one], in that order: 53 nM, 184 nM and 2.2 nM.
`Cn1cc(/C=C2\Oc3cc(O)cc(O)c3C2=O)c2c(-c3ccc(N4CCOCC4)cc3)ccnc21` [Compound 49, (2Z)-4,6-dihydroxy-2-{[1-methyl-4-(4-morpholin-4-ylphenyl)-1H-pyrrolo[2,3-b]pyridin-3-yl]methylene}-1-benzofuran-3(2H)-one]: the IC50 in experiment [1] stood at 25 nM; in experiment [2], 83 nM; in experiment [3] it was 0.2 nM.
The corresponding values for `Cn1cc(/C=C2\Oc3cc(O)cc(O)c3C2=O)c2c(N3CCC(O)CC3)ccnc21` [Compound 50, (2Z)-4,6-dihydroxy-2-{[4-(4-hydroxypiperidin-1-yl)-1-methyl-1H-pyrrolo[2,3-b]pyridin-3-yl]methylene}-1-benzofuran-3(2H)-one] are 23 nM, 177 nM and 0.2 nM.
For `Cn1cc(/C=C2\Oc3cc(O)cc(O)c3C2=O)c2c(/C=C/c3ccccc3)ccnc21` [Compound 51, (2Z)-4,6-dihydroxy-2-({1-methyl-4-[(E)-2-phenylvinyl]-1H-pyrrolo[2,3-b]pyridin-3-yl}methylene)-1-benzofuran-3(2H)-one], in that order: 47 nM, 92 nM and 3.4 nM.
On to `CN(C)c1cccc(-c2ccnc3c2c(/C=C2\Oc4cc(O)cc(O)c4C2=O)cn3C)c1` [Compound 52, (2Z)-2-({4-[3-(dimethylamino)phenyl]-1-methyl-1H-pyrrolo[2,3-b]pyridin-3-yl}methylene)-4,6-dihydroxy-1-benzofuran-3(2H)-one], for which the values for the IC50 in experiment [1], in experiment [2] and in experiment [3] were 123 nM, 199 nM and 0.6 nM, respectively.
For `Cn1cc(/C=C2\Oc3cc(O)cc(O)c3C2=O)c2c(N3CC4CCC(C3)O4)ccnc21` [Compound 54, (2Z)-4,6-dihydroxy-2-{[1-methyl-4-(8-oxa-3-azabicyclo[3.2.1]oct-3-yl)-1H-pyrrolo[2,3-b]pyridin-3-yl]methylene}-1-benzofuran-3(2H)-one], in that order: 11 nM, 70 nM and 0.1 nM.
For `Cn1cc(/C=C2\Oc3cccc(O)c3C2=O)c2c(N3CC4CCC(C3)O4)ccnc21` [Compound 55, (2Z)-4-hydroxy-2-{[1-methyl-4-(8-oxa-3-azabicyclo[3.2.1]oct-3-yl)-1H-pyrrolo[2,3-b]pyridin-3-yl]methylene}-1-benzofuran-3(2H)-one], in that order: 104 nM, 51 nM and 0.4 nM.
Consider `CN1CCN(c2ccc(-c3ccnc4c3c(/C=C3\Oc5cc(O)cc(O)c5C3=O)cn4C)cc2)CC1` [Compound 56, (2Z)-4,6-dihydroxy-2-({1-methyl-4-[4-(4-methylpiperazin-1-yl)phenyl]-1H-pyrrolo[2,3-b]pyridin-3-yl}methylene)-1-benzofuran-3(2H)-one], for which the IC50 in experiment [1] was determined as 79 nM; in experiment [2], 581 nM; in experiment [3], 1.9 nM.
The corresponding values for `CN1CCN(c2ccc(-c3ccnc4c3c(/C=C3\Oc5cccc(O)c5C3=O)cn4C)cc2)CC1` [Compound 57, (2Z)-4-hydroxy-2-({1-methyl-4-[4-(4-methylpiperazin-1-yl)phenyl]-1H-pyrrolo[2,3-b]pyridin-3-yl}methylene)-1-benzofuran-3(2H)-one] are 147 nM, 148 nM and 11.4 nM.
As for `Cn1cc(/C=C2\Oc3ccc(Br)cc3C2=O)c2c(N3CC4CCC(C3)O4)ccnc21` [Compound 59, (2Z)-5-bromo-2-{[1-methyl-4-(8-oxa-3-azabicyclo[3.2.1]oct-3-yl)-1H-pyrrolo[2,3-b]pyridin-3-yl]methylene}-1-benzofuran-3(2H)-one], the IC50 in experiment [1] came to 391 nM; in experiment [2], 980 nM; in experiment [3] it was 35.5 nM.
Turning to `CCNC(=O)Nc1ccc2c(c1)C(=O)/C(=C/c1cn(C)c3nccc(N4CC5CCC(C4)O5)c13)O2` [Compound 61, 1-ethyl-3-[(2Z)-2-{[1-methyl-4-(8-oxa-3-azabicyclo[3.2.1]oct-3-yl)-1H-pyrrolo[2,3-b]pyridin-3-yl]methylene}-3-oxo-2,3-dihydro-1-benzofuran-5-yl]Urea], the IC50 in experiment [1] stood at 311 nM; in experiment [2] it was 668 nM; in experiment [3] it was 57 nM.
Regarding `Cn1cc(/C=C2\Oc3cccc(O)c3C2=O)c2c(-c3ccc(N4CCOCC4)nc3)ccnc21` [Compound 69, (2Z)-4-hydroxy-2-{[1-methyl-4-(6-morpholin-4-ylpyridin-3-yl)-1H-pyrrolo[2,3-b]pyridin-3-yl]methylene}-1-benzofuran-3(2H)-one], the IC50 is 64 nM in experiment [1], 281 nM in experiment [2] and 24.8 nM in experiment [3].

(Values after patent publication US20090298820A1, “3-SUBSTITUTED-1H-PYRROLO[2,3-B]PYRIDINE AND 3-SUBSTITUTED-1H-PYRROLO[3,2-B]PYRIDINE COMPOUNDS, THEIR USE AS MTOR KINASE AND PI3 KINASE INHIBITORS, AND THEIR SYNTHESES” (Wyeth, priority 2008, published 2009).)
